In US12527832B2, “Enriched Withania somnifera based dietary composition and a method thereof” (priority 2015, dated 2026):

What was measured:
[1] = Bioavailability of Withaferin A and Withanoside IV in animals; type: in vivo; conditions: rat plasma, p.o.; standards 15 mg/kg, WG35 500 mg/kg
Description: Albino rats weighing 200-220 gm of both sexes were used for the study. The rats were kept individually in polypropylene cages and maintained in a well-ventilated room under normal and uniform conditions like 12 hours light and dark cycle and at 26±2° C. Water and feed were given ad-libitum. After the acclimatization period, the animals were fasted overnight before administration of test products.
Immediately after drug administration, 0.5 ml of blood was withdrawn at 0, 0.5, 1, 1.5, 2, 4, 6, 8 and 12 hours. Plasma samples were separated and Withaferin A and Withanoside IV were detected.

[2] = rats, administered orally; cited from earlier work
GABA receptors = assay: Expression of GABA receptors in rat glioblastoma (C6) cell line; type: cell-based; conditions: C6 cells, positive control 1 μg/mL
Swiss albino mice = assay: Pentobarbital induced sleep activity; type: in vivo; conditions: 1 mg/kg
Description: Swiss albino mice weighing 25-30 gm were used for the study.
Thirty minutes later, pentobarbital 40 mg/kg body weight was administered to each mouse to induce sleep. The onset time of sleep was recorded for all the animals. After induction of sleep, mice were placed in the inverted position and when sedation was over, the time point when the mice returned to their normal posture was noted. The time interval between dosing and the start of sleep was recorded as latency time.

Albino Wistar rats = assay: Anoxia stress tolerance (AST) test; type: in vivo, rat; conditions: p.o. daily
Description: Albino Wistar rats of either sex weighing 150-220 g were selected and divided into seven groups of six each. Doses in each group were calculated thus, only 5 mg/Kg body weight withanolide were administered to each animal. The test was conducted as per the protocol disclosed in U.S. Pat. No. 9,987,323B2.
Animals were treated as shown above for the 3 weeks. At the end of 1st, 2nd and 3rd week i.e., on 7th, 14th and 21st day 1 h after the treatment stress was induced by placing each animal individually in the hermetic vessel of 1 L capacity to record anoxia tolerance time. The time duration of entry of the animal into the hermetic vessel and the appearance of the first convulsion was taken as time of anoxia.

Swiss mice = assay: Swimming endurance test; type: in vivo; conditions: 8th day after 7 days once daily p.o.
Description: Extracts were given to the mice, once daily for a period of 7 days. On 8th day the mice were subjected to swimming stress by keeping them in propylene tank of dimension (37×37×30 cm), filled with water to a height of 25 cm. The […] were allowed to swim till complete exhaustion and the endpoint was taken when the animal started drowning. The mean swimming time for each group was calculated.

Wistar rats = assay: Carrageenan induced paw edema model; type: in vivo, rat; conditions: single p.o. dose
Description: Anti-inflammatory activity of Withania somnifera extracts was assessed by carrageenan induced paw edema model in rats. Wistar rats were divided into seven groups (n=5). Following treatment was given to the rats as single dose; • Group 1: Control (Received only vehicle, 1% Tween 80 v/v p.o.) • Group II: Powdered Withania somnifera plant parts minimum 0.4% withanolides—Dosage 1750 mg/kg p.o. • Group III: Withania somnifera plant extract standardized minimum 2.5% withanolides (WG2.5)—Dosage 200 mg/kg p.o. • Group IV: Withania somnifera plant extract standardized minimum 5% withanolides (WG5)—Dosage 100 mg/kg p.o. • Group V: Withania somnifera plant extract standardized minimum 10% Withanolide Glycoside (WG10)—Dosage 50 mg/kg p.o. • Group VI: Sample 2 standardized with minimum 35±3% Withanolide Glycoside (WG 35)—Dosage 14 mg/kg p.o). • Group VII: Indomethacin (10 mg/kg p.o.).
After 30 minutes of extracts 0.1 mL of carrageenan (1% in normal saline) was injected into the right hind paw of each rat. The paw volume was measured plethysmographically at 0, 0.5, 1, 2, 3, 4 and 5th hour after challenge. The percentage inhibition of edema was calculated for each group with respect to the vehicle received control group of animals.

CC1=C(CO)C(=O)O[C@@H]([C@@H](C)[C@H]2CC[C@H]3[C@@H]4CC=C5C[C@@H](O[C@@H]6O[C@H](CO[C@@H]7O[C@H](CO)[C@@H](O)[C@H](O)[C@H]7O)[C@@H](O)[C@H](O)[C@H]6O)C[C@H](O)[C@]5(C)[C@H]4CC[C@]23C)C1 [Withanoside IV]
Withaferin A AUC (0-12 h) [1]: 0.018 µg·h/mL
Withaferin A Cmax [1]: 0.0135 µg/mL
Withanoside IV AUC (0-12 h) [1]: 0.014 µg·h/mL
Withanoside IV Cmax [1]: 0.0102 µg/mL

CC1=C(CO)C(=O)O[C@@H]([C@@H](C)[C@H]2CC[C@H]3[C@@H]4C[C@H]5O[C@]56[C@@H](O)C=CC(=O)[C@]6(C)[C@H]4CC[C@]23C)C1 [Withaferin A]
Withaferin A AUC (0-12 h) [1]: 0.0302 µg·h/mL
Withaferin A Cmax [1]: 0.028 µg/mL

CC1=C(C)C(=O)O[C@@H]([C@](C)(O)[C@H]2CC[C@H]3[C@@H]4[C@@H]5O[C@@H]5[C@@]5(O)CC=CC(=O)[C@]5(C)[C@H]4CC[C@]23C)C1 [Withanolide A]
Absolute bioavailability of withanolide A in plasma [2]: less than 5%

NCCCC(=O)O [GABA, Gamma aminobutyric acid]
Gene expression of GABA receptors, fold increase (cell control = 1.00) (GABA receptors): 1.00

CN1C(=O)CN=C(c2ccccc2)c2cc(Cl)ccc21 [Diazepam]
Duration of sleep (Swiss albino mice; pentobarbital 40 mg/kg): 99
Onset time of sleep (latency time) (Swiss albino mice; pentobarbital 40 mg/kg): 27 min
Percentage decrease in onset time of sleep (Swiss albino mice; vs control): 47%
Percentage increase in duration of sleep (Swiss albino mice; vs control): 74%
Duration of anoxia stress tolerance (Albino Wistar rats; 1st week): 34.40 min
Duration of anoxia stress tolerance (Albino Wistar rats; 2nd week): 35.1 min
Duration of anoxia stress tolerance (Albino Wistar rats; 3rd week): 37.00 min
Swimming time (Swiss mice): 58.67 min

COc1ccc2c(c1)c(CC(=O)O)c(C)n2C(=O)c1ccc(Cl)cc1 [Indomethacin]
Percentage inhibition of paw oedema (Wistar rats; 0.5 hr): 28%
Percentage inhibition of paw oedema (Wistar rats; 1 hr): 65%
Percentage inhibition of paw oedema (Wistar rats; 2 hr): 80%
Percentage inhibition of paw oedema (Wistar rats; 3 hr): 86%
